Results taken from patent US20250368624A1, “M24B AMINOPEPTIDASE INHIBITORS FOR CARD8 INFLAMMASOME ACTIVATION” (Memorial Sloan-Kettering Cancer Center, priority 2022, published 2025).

What was measured:
recombinant human PEPD = recombinant human PEPD (Homo sapiens (Human), UniProt P12955); assay: PEPD substrate assay (Ala-Pro cleavage, L-alanine assay kit); format: biochemical; details: for IC50: 50 nM recombinant human PEPD, Ala-Pro 40 μM, 25° C.
Procedure: Protein purification. Human prolidase (PEPD) was generated and purified. XPNPEP1 in pET15-b containing a 6× His tag was expressed in E. coli Rosetta DE3 cells.
Substrate assays. For the PEPD assay, a solution of substrate (Ala-Pro) was prepared in DMSO. 24 μL of 50 nM recombinant human PEPD were added to a 384-well, black, clear-bottom plate (Corning) with 1 μL dipeptide Ala-Pro (final conc. 40 μM). […] For the AMC reporter assays, experiments were performed with cell lysates. 5 μL solution of substrate (2.5 mM Ala-AMC) was added the mixture of 10 μL HEK293T cell lysates (2.5 mg/ml) and 10 μL of indicated compounds in a 384-well, black, clear-bottom plate (Corning) to initiate the reaction. Substrate cleavage was measured as increasing fluorescence signal (Ex/Em: 380/460 nm) recorded at 25° C. for 20 mins. […] H-Lys(abz)-Pro-Pro-pNA substrate was added to a final concentration of 100 μM, and fluorescence was monitored (Ex/Em: 320/410) for 60 mins.

XPNPEP1 = XPNPEP1 (Homo sapiens (Human), UniProt Q9NQW7); assay: XPNPEP1 substrate assay (H-Lys(abz)-Pro-Pro-pNA); format: biochemical; details: for IC50: XPNPEP1 3.5 nM, substrate 100 μM, 60 mins
Procedure: Protein purification. Human prolidase (PEPD) was generated and purified. XPNPEP1 in pET15-b containing a 6× His tag was expressed in E. coli Rosetta DE3 cells. Cells were induced with IPTG for 16 h at 37° C., pelleted and lysed in buffer A (20 mM Tris-HCl (pH 7.9), 500 mM NaCl, and 10% (v/v) glycerol) by sonication. Affinity purification chromatography was performed using TALON resin and according to previously published protocols (Li et al., 2008).
Substrate assays. For the PEPD assay, a solution of substrate (Ala-Pro) was prepared in DMSO. 24 μL of 50 nM recombinant human PEPD were added to a 384-well, black, clear-bottom plate (Corning) with 1 μL dipeptide Ala-Pro (final conc. 40 μM). Alanine liberated was measured as increasing fluorescence signal (Resorufin, Ex/Em: 535/587 nm) recorded at 25° C. using an L-alanine assay kit (Abcam, ab83394) at 25° C. according to manufacturer's instructions. For the AMC reporter assays, experiments were performed with cell lysates. 5 μL solution of substrate (2.5 mM Ala-AMC) was added the mixture of 10 μL HEK293T cell lysates (2.5 mg/ml) and 10 μL of indicated compounds in a 384-well, black, clear-bottom plate (Corning) to initiate the reaction. Substrate cleavage was measured as increasing fluorescence signal (Ex/Em: 380/460 nm) recorded at 25° C. for 20 mins. For XPNPEP1 enzymes (XPNPEP1 3.5 nM) were plated on a black 384-well clear bottom plate and treated with the indicated doses of compounds. H-Lys(abz)-Pro-Pro-pNA substrate was added to a final concentration of 100 μM, and fluorescence was monitored (Ex/Em: 320/410) for 60 mins.

[1] = Stability in cell culture supernatants; format: in vitro ADME
MV4;11 WT cells = assay: CellTiter-Glo cell viability, WT MV4;11 cells; format: cell-based; details: for IC50 / cytotoxicity to MV4;11 cells (in words): 24 h, CTG
Procedure: (§1) CellTiter-Glo cell viability and CytoTox-Fluor cell death assays. Cells were plated (2,000 cells per well) in white, 384-well clear-bottom plates (Corning) using an EL406 Microplate Washer/Dispenser (BioTek) in 25 μL final volume of medium. To the cell plates were added compounds at different concentrations using a pintool (CyBio) and the plates were allowed to incubate in the incubator. After incubation for indicated times, CytoTox-Fluor reagent (Promega, G9262) was added according to the manufacturer's protocol. The assay plates were then incubated for another 30 min before fluorescence was recorded using a Cytation 5 Cell Imaging Multi-Mode Reader (BioTek). Next, CellTiter-Glo reagent (Promega, G7573) was subsequently added to the assay plates following the manufacturer's protocol. Assay plates were shaken on an orbital shaker for 2 min and incubated at 25° C. for 10 min. Luminescence was then read using a Cytation 5 Cell Imaging Multi-Mode Reader (BioTek).

MV4;11 CASP1-/- cells = assay: CellTiter-Glo cell viability, CASP1-/- MV4;11 cells; format: cell-based; details: 24 h, CTG; for CASP1-independent cell death: WT and CASP1-/- MV4;11 cells
Procedure: Cloning. CASP1^−/− MV4;11 cells^12; CARD8^−/− MV4;11, THP-1, OCI-AML2 cells^14; DPP8/9^−/− THP-1^12; PEPD^−/−, XPNPEP1^−/−, PEPD XPNPEP1^−/− THP-1 cells were generated. Plasmids for CARD8 variants, CASP1, GSDMD, dTAG-CARD8^ZUC were cloned as described previously (Hollingsworth et al., 2021; Johnson et al., 2018; Sharif et al., 2021).
as §1

XPNPEP1, sequence (Q9NQW7 whole entry): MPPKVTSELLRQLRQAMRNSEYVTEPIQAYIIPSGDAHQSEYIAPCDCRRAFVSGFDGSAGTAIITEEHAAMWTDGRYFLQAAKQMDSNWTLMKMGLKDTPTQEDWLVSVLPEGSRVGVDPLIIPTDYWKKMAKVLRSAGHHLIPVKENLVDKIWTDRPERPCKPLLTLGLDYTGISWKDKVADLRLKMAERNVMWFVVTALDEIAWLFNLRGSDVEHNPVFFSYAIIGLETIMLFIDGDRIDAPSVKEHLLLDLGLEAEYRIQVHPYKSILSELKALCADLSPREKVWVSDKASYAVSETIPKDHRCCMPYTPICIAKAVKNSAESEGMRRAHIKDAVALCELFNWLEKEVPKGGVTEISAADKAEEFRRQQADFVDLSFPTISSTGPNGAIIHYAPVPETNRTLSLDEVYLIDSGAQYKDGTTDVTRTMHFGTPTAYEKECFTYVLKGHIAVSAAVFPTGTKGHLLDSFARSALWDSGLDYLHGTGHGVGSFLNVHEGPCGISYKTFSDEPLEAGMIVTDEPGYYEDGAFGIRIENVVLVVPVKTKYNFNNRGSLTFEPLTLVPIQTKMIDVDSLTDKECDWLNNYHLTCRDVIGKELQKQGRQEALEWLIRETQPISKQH
recombinant human PEPD, sequence (P12955 whole entry): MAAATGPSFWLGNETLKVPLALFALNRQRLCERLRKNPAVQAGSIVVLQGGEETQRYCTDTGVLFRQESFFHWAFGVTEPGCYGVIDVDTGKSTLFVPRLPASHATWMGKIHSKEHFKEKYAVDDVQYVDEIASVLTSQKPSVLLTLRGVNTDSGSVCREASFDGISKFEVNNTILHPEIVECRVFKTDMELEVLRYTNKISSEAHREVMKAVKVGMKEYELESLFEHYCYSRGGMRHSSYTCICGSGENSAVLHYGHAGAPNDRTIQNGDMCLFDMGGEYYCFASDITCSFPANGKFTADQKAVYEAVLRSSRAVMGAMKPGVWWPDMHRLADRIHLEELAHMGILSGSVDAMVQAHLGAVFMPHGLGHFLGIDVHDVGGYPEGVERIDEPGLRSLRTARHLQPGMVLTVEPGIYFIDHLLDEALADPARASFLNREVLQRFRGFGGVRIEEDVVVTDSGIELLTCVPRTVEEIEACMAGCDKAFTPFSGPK

SMILES | IC50 (recombinant human PEPD) | IC50 (XPNPEP1) | cytotoxicity to MV4;11 cells (in words) (MV4;11 WT cells) | other results
CC(C)C[C@H](NC(=O)[C@@H]1CCCN1C(=O)[C@@H](O)[C@H](N)CC(C)C)C(=O)NCCc1ccccc1 [CQ116, (S)-1-((2S,3R)-3-amino-2-hydroxy-5-methylhexanoyl)-N—((S)-4-methyl-1-oxo-1-(phenethylamino)pentan-2-yl)pyrrolidine-2-carboxamide] | 5.7 µM | 3.4 µM | – | stability in cell culture supernatants (in words) [1]: completely stable
CC[C@H](C)[C@H](NC(=O)[C@@H]1CCCN1C(=O)[C@@H](O)[C@H](N)CC(C)C)C(=O)OC [CQ81, Methyl ((2S,3R)-3-amino-2-hydroxy-5-methylhexanoyl)-L-prolyl-L-isoleucinate] | 0.84 µM | 23 µM | – | IC50 (MV4;11 WT cells; Homo sapiens, MV4-11): 0.6 µM; IC50 (MV4;11 CASP1-/- cells; Homo sapiens, MV4-11): > 20 µM
C[C@H](NC(=O)[C@@H]1CCCN1C(=O)[C@@H]1CCCN1C(=O)[C@@H](O)[C@H](N)Cc1ccccc1)C(N)=O [Apstatin, apstatin, reference compound] | – | 18 µM | not cytotoxic at all | IC50 (MV4;11 WT cells): > 20 µM; IC50 (MV4;11 CASP1-/- cells): > 20 µM
COC(=O)[C@H](CC(C)C)NC(=O)[C@@H](O)[C@H](N)CC(C)C [CQ52, Methyl ((2S,3R)-3-amino-2-hydroxy-5-methylhexanoyl)-L-leucinate] | 51 µM | 57 µM | – | CASP1-independent cell death (MV4;11 CASP1-/- cells): triggered CASP1-independent cell death; PEPD inhibition (in words) (recombinant human PEPD): very weak PEPD and XPNPEP1 inhibitors; XPNPEP1 inhibition (in words) (XPNPEP1): very weak PEPD and XPNPEP1 inhibitors
COC(=O)[C@H](Cc1ccccc1)NC(=O)[C@@H]1CCCN1C(=O)[C@@H](O)[C@H](N)CC(C)C [CQ79, Methyl ((2S,3R)-3-amino-2-hydroxy-5-methylhexanoyl)-L-prolyl-L-phenylalaninate] | 0.72 µM | 48 µM | – | IC50 (MV4;11 WT cells; Homo sapiens, MV4-11): 0.66 µM; IC50 (MV4;11 CASP1-/- cells; Homo sapiens, MV4-11): > 20 µM
CC(C)C[C@@H](N)[C@H](O)C(=O)N1CCC[C@H]1C(=O)OC(C)(C)C [CQ34, tert-butyl ((2S,3R)-3-amino-2-hydroxy-5-methylhexanoyl)-L-prolinate] | – | – | slightly more toxic | PEPD inhibition (in words) (recombinant human PEPD): inhibited PEPD and XPNPEP1 inhibitors similarly; XPNPEP1 inhibition (in words) (XPNPEP1): inhibited PEPD and XPNPEP1 inhibitors similarly; stability in cell culture supernatants (in words) [1]: considerably more stable than CQ31 or CQ94; time after which completely hydrolyzed ([1]; cell culture supernatants): ≤ 8 h
COC(=O)[C@@H]1CCCN1C(=O)[C@@H](O)[C@H](N)C12CC3CC(CC(C3)C1)C2 [CQ47, Methyl ((2S,3R)-3-(adamantan-1-yl)-3-amino-2-hydroxypropanoyl)-L-prolinate] | 12 µM | 33 µM | almost completely inactive | –
COC(=O)[C@@H]1CCCN1C(=O)[C@@H](O)[C@H](N)CCCCO [CQ75] | 0.3 µM | 115 µM | lost cytotoxicity | PEPD inhibition (in words) (recombinant human PEPD): retained PEPD inhibition
COC(=O)[C@@H]1CCCN1C(=O)[C@@H](O)[C@H](N)C1CC1 [CQ62, Methyl ((2S,3R)-3-amino-3-cyclopropyl-2-hydroxypropanoyl)-L-prolinate] | 4.2 µM | 66 µM | almost completely inactive | –
CC(C)CCNC(=O)[C@@H]1CCCN1C(=O)[C@@H](O)[C@H](N)CC(C)C [CQ95, (S)-1-((2S,3R)-3-amino-2-hydroxy-5-methylhexanoyl)-N-isopentylpyrrolidine-2-carboxamide] | 0.29 µM | 140 µM | – | overall activity (PEPD/XPNPEP1 inhibition and cytotoxicity, Table 6 and FIG. 2), in words (MV4;11 WT cells): retained similar PEPD/XPNPEP1 inhibition and cytotoxicity as CQ31
CC(C)C[C@@H](N)[C@H](O)C(=O)N1CCC[C@H]1C(=O)OC1CCCC1 [CQ94, Cyclopentyl ((2S,3R)-3-amino-2-hydroxy-5-methylhexanoyl)-L-prolinate] | – | – | slightly more toxic | PEPD inhibition (in words) (recombinant human PEPD): inhibited PEPD and XPNPEP1 inhibitors similarly; XPNPEP1 inhibition (in words) (XPNPEP1): inhibited PEPD and XPNPEP1 inhibitors similarly
COC(=O)[C@H](C)NC(=O)[C@@H]1CCCN1C(=O)[C@@H]1CCCN1C(=O)[C@@H](O)[C@H](N)CC(C)C [CQ50, Methyl ((2S,3R)-3-amino-2-hydroxy-5-methylhexanoyl)-L-prolyl-L-prolyl-L-alaninate] | 11 µM | 8.1 µM | – | IC50 (MV4;11 WT cells; Homo sapiens, MV4-11): 35 µM; IC50 (MV4;11 CASP1-/- cells; Homo sapiens, MV4-11): > 100 µM
COC(=O)[C@@H]1C[C@H](O)CN1C(=O)[C@@H](O)[C@H](N)CC(C)C [CQ39, Methyl (2S,4S)-1-((2S,3R)-3-amino-2-hydroxy-5-methylhexanoyl)-4-hydroxypyrrolidine-2-carboxylate] | > 100 µM | 190 µM | – | overall activity (PEPD/XPNPEP1 inhibition and cytotoxicity, Table 6 and FIG. 2), in words (MV4;11 WT cells): completely inactive
CONC(=O)[C@@H]1CCCN1C(=O)[C@@H](O)[C@H](N)CC(C)C [CQ55, (S)-1-((2S,3R)-3-amino-2-hydroxy-5-methylhexanoyl)-N-methoxypyrrolidine-2-carboxamide] | 1.6 µM | 303 µM | inactive in cells | –
COC(=O)[C@H](CC(C)C)NC(=O)[C@@H](O)[C@H](N)Cc1ccccc1 [MeBs, bestatin methyl ester, reference compound] | – | – | – | CASP1-independent cell death (MV4;11 CASP1-/- cells): CASP1-independent cell death
COC(=O)[C@H](Cc1ccccc1)NC(=O)[C@@H](O)[C@H](N)CC(C)C [CQ72, Methyl ((2S,3R)-3-amino-2-hydroxy-5-methylhexanoyl)-L-phenylalaninate] | > 100 µM | 96 µM | – | CASP1-independent cell death (MV4;11 CASP1-/- cells): triggered CASP1-independent cell death; PEPD inhibition (in words) (recombinant human PEPD): very weak PEPD and XPNPEP1 inhibitors; XPNPEP1 inhibition (in words) (XPNPEP1): very weak PEPD and XPNPEP1 inhibitors
CC(C)C[C@@H](N)[C@H](O)C(=O)N1CCC[C@H]1CNS(C)(=O)=O [CQ53, N—(((S)-1-((2S,3R)-3-amino-2-hydroxy-5-methylhexanoyl)pyrrolidin-2-yl)methyl)methanesulfon-amide] | > 100 µM | 12 µM | inactive in cells | –
CC(C)C[C@@H](N)[C@H](O)C(=O)N1CCC[C@H]1c1nnn[nH]1 [CQ99, (2S,3R)-1-((S)-2-(1H-tetrazol-5-yl)pyrrolidin-1-yl)-3-amino-2-hydroxy-5-methylhexan-1-one] | 6.2 µM | 67 µM | inactive in cells | –
